Assay results published in the supplement of paper PMC10307832.

Columns and labels:
Test in all cases: relative viability (nuclei count vs DMSO), 5 days (fraction); higher = more cells survive
[1] = compound: O[C@H]1CC[C@H](Nc2ncc3nc(Nc4c(F)cc(F)cc4F)n([C@H]4CCOC4)c3n2)CC1 [Tanzisertib] + CC(=O)c1c(C)c2cnc(Nc3ccc(N4CCNCC4)cn3)nc2n(C2CCCC2)c1=O [Palbociclib] (partner 0.5 µM)
Outline: (§1)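 Values are medians from duplicate plates. Each reflects relative viability, defined as the nuclei count of treated wells over that of vehicle wells. Lung cancer cell lines in 1536-well plates were pin-tool dosed one day after seeding with one drug alone or with a fixed anchor-drug dose plus five library-drug doses (not always all listed) in √10 steps, then fixed, stained and imaged at 4× after 5 days.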

[2] = compound: C1CNCCC1C2=CC(=NN2)C3=CC=NC=C3 + NC(=O)Nc1cc(-c2cccc(F)c2)sc1C(=O)N[C@H]1CCCNC1 [AZD7762] (partner 0.2 µM)
Outline: as §1

[3] = compound: C[C@@H](N)c1ccc(C(=O)Nc2ccnc3[nH]ccc23)cc1 + CC(=O)c1c(C)c2cnc(Nc3ccc(N4CCNCC4)cn3)nc2n(C2CCCC2)c1=O [Palbociclib] (partner 0.5 µM)
Outline: as §1

[4] = compound: C[C@@H](N)c1ccc(C(=O)Nc2ccnc3[nH]ccc23)cc1 + C[C@]1(O)C[C@@H](c2nc(-c3ccc4ccc(-c5ccccc5)nc4c3)c3c(N)nccn32)C1 [Linsitinib] (partner 1 µM)
Outline: as §1

Cell Line	relative viability ([1]; first compound 0.08 µM)	relative viability ([1]; first compound 0.253 µM)	relative viability ([1]; first compound 0.8 µM)	relative viability ([1]; first compound 2.53 µM)	relative viability ([1]; first compound 8 µM)	relative viability ([2]; first compound 0.8 µM)	relative viability ([2]; first compound 2.53 µM)	relative viability ([2]; first compound 8 µM)	relative viability ([3]; first compound 0.04 µM)	relative viability ([3]; first compound 0.1265 µM)	relative viability ([3]; first compound 0.4 µM)	relative viability ([3]; first compound 1.265 µM)	relative viability ([3]; first compound 4 µM)	relative viability ([4]; first compound 0.04 µM)	relative viability ([4]; first compound 0.1265 µM)	relative viability ([4]; first compound 0.4 µM)	relative viability ([4]; first compound 1.265 µM)	relative viability ([4]; first compound 4 µM)	relative viability ([2]; first compound 0.08 µM)
LK-2	0.526	0.618	0.798	0.659	0.749	0.29	0.532	0.522	0.826	0.7	0.655	0.485	0.912	0.822	0.542	0.809	0.554	0.721	–
LOU-NH91	0.584	0.558	0.532	0.556	0.414	0.739	0.853	0.773	0.581	0.527	0.533	0.536	0.448	0.831	0.979	0.778	0.726	0.702	0.797
LU99A	0.405	0.377	0.378	0.399	0.389	0.338	0.4	0.439	–	0.372	0.387	0.343	0.275	0.607	0.569	0.586	0.617	0.509	0.403
LXF-289	0.596	0.592	0.647	0.574	0.65	1.14	1.15	1.1	0.613	0.611	0.565	0.61	0.512	1.02	0.995	0.997	1.09	0.88	1.15
NCI-H23	0.479	0.53	0.512	0.493	0.514	–	0.326	0.308	0.532	0.644	0.545	–	0.441	0.665	0.641	0.779	–	0.519	0.329
NCI-H322M	0.475	0.459	0.475	0.472	0.534	0.597	0.627	0.622	0.534	0.584	0.526	0.515	0.524	1.02	1.12	0.93	–	1.1	0.582
NCI-H358	0.129	0.134	0.127	0.127	0.148	0.626	0.553	0.54	0.145	0.134	0.141	0.133	0.145	0.707	0.655	0.732	0.801	0.702	0.487
NCI-H441	0.236	0.224	0.241	0.194	0.154	1.18	0.948	1.19	0.233	0.265	0.25	0.237	0.263	0.626	0.571	0.64	0.483	0.45	0.967
NCI-H460	0.199	0.193	0.113	0.161	0.13	0.673	0.652	0.658	0.076	0.183	0.343	0.154	0.224	0.857	0.729	0.823	0.954	0.599	0.69
NCI-H647	0.364	0.506	0.381	0.427	0.439	0.43	0.383	0.431	0.472	0.496	0.417	0.308	0.333	1.14	1.18	1.22	1.28	0.976	0.409
NCI-H650	0.341	0.342	0.302	0.33	0.325	1.07	1.09	0.949	–	0.341	0.311	–	0.327	0.723	0.751	0.841	–	0.658	0.853
NCI-H727	0.74	0.673	0.614	0.676	0.626	0.474	0.72	0.773	0.667	0.714	0.746	0.748	0.798	0.135	0.559	0.493	0.736	0.785	0.658
NCI-H838	0.233	0.225	0.219	0.228	0.198	0.888	0.989	0.934	0.183	0.221	0.229	0.192	0.183	0.945	0.905	0.796	0.533	0.367	0.928
NCI-H1355	0.435	0.398	0.4	0.438	0.382	0.801	0.822	0.796	0.441	0.422	0.403	0.427	0.393	0.853	0.723	0.833	–	0.771	0.682
NCI-H1395	0.71	0.574	0.607	0.618	0.632	0.437	0.405	0.398	0.583	0.639	0.597	–	0.577	1.05	1.14	1.24	–	0.878	0.389
NCI-H1437	0.333	0.291	0.315	0.32	0.262	1.09	1.17	1.09	0.335	0.315	0.386	0.369	0.482	1.14	1.04	1.07	1.14	0.897	1.09
